Literature values in US6573299B1, “Method and compositions for treatment of the aging eye” (Advanced Medical Instruments, priority 1999, dated 2003).

Legend:
[1] = system: tumor necrosis factor-alpha (TNF-alpha) and nitric oxide production
[2] = system: nitric oxide synthase
[3] = system: retinal ganglion cells; conditions: treated animals
[4] = long term high intake, greater than 1,000 mg/day
[5] = diet of 6 mg of lutein per day
[6] = not given; remark: listed apart in the source

Oc1ccc(C=Cc2cc(O)cc(O)c2)cc1 [Resveratrol, 3,5,4′-trihydroxystilbene]
TNF-alpha and nitric oxide production [1]: inhibit tumor necrosis factor-alpha (TNF-alpha) and nitric oxide production | nitric oxide synthase inhibition [2]: suppresses nitric oxide synthase

N=C(N)NN [aminoguanidine]
loss of retinal ganglion cells [3]: reduction in the loss of retinal ganglion cells

O=C1O[C@H]([C@@H](O)CO)C(O)=C1O [ascorbic acid]
risk of cataracts [4]: substantially reduced risk of cataracts

CCCCCCCCCCCCCCCC(=O)OC[C@H](O)[C@H]1OC(=O)C(O)=C1O [ascorbyl palmitate]
erythema from UV injured skin (5% lotion): effective in reducing erythema | erythema after exposure to UVB (skin pretreated topically, lecithin gel base, compared to untreated skin): decreased erythema

CC1=C[C@H](O)CC(C)(C)[C@H]1/C=C/C(C)=C/C=C/C(C)=C/C=C/C=C(C)/C=C/C=C(C)/C=C/C1=C(C)C[C@@H](O)CC1(C)C [lutein]
lower prevalence of AMD [5]: 43%

Zinc
loss of visual acuity in patients with AMD ([6]; clinical trial, high-dose zinc supplementation): reduction in the loss of visual acuity | AMD ([6]; study published in 1988): improved AMD | nitric oxide synthase inhibition [2]: very potent inhibitor
